# Several values for one entry are separate records, joined by “and”; a condition that tells them apart may be missing. Equal values may be shown once.
# Experiments:
# [1] = test system: Zika virus; experiment: (§1) Functional CPE-based assay to measure dose dependent changes in antiviral-drug inhibitory efficacy against Zika virus MR766 in Vero E6 miRFP670 cells (cotreated with P-gp inhibitor, CP100356). Cells are treated with antiviral candidates that are serially diluted. EC50 is reported via analysis of MTS assay as a readout of CPE. The assay has been performed by KU Leuven.; assay type: organism-based, Chlorocebus sabaeus, Vero C1008; conditions: Zika virus, Vero C1008
# [2] = test system: Zika virus; experiment: EC50 is reported via analysis of immunofluorescence staining. The assay has been performed by Icahn School of Medicine at Mount Sinai.; assay type: functional, organism-based, Chlorocebus sabaeus, VeroE6/TMPRSS2; conditions: Baseline response 0 %, Maximum response 100 %, P-gp concentration 2 uM, P-gp inhibitor Elacidar
# [3] = test system: Zika virus; experiment: (§2) Functional immunofluorescence assay to measure dose dependent changes in antiviral-drug inhibitory efficacy against Zika virus PRVABC59 in Vero E6/TMPRSS2 cells. Cells are treated with antiviral candidates that are serially diluted, following infection, cells are fixed. EC50 is reported via analysis of immunofluorescence staining. The assay has been performed by Icahn School of Medicine at Mount Sinai.; assay type: organism-based, Chlorocebus sabaeus; conditions: VeroE6/TMPRSS2
# [4] = test system: dengue virus type 2; experiment: Functional assay to measure dose dependent changes in antiviral-drug inhibitory efficacy against Dengue virus type 2 New Guinea C in Vero E6 miRFP670 cells (cotreated with P-gp inhibitor, CP100356). Cells are treated with antiviral candidates that are serially diluted, following infection, cells are fixed. EC50 is reported via analysis of fluorescence intensity using high-content imager. The …; assay type: organism-based, Chlorocebus sabaeus, Vero C1008; conditions: for EC90: P-gp concentration 500 nM, P-gp inhibitor CP100356
# [5] = test system: dengue virus type 2; experiment: as §2, with “Dengue” for “Zika”, “type 2 Thailand/16681/84” for “PRVABC59”, “cells (cotreated with P-gp inhibitor, Elacridar).” for “cells.”; assay type: organism-based, Chlorocebus sabaeus, VeroE6/TMPRSS2; conditions: for EC90: P-gp concentration 2 uM, P-gp inhibitor Elacidar
# [6] = test system: dengue virus type 2; experiment: as §2, with “Dengue” for “Zika”, “type 2 Thailand/16681/84” for “PRVABC59”; assay type: organism-based, Chlorocebus sabaeus
# [7] = test system: dengue virus type 2; experiment: Functional CPE-based assay to measure dose dependent changes in antiviral-drug inhibitory efficacy against Dengue virus type 2 New Guinea C in Huh7 cells. Cells are treated with antiviral candidates that are serially diluted. EC50 is reported via analysis of MTT/MTS assay as a readout of CPE. The assay has been performed by National Institute of Allergy and Infectious Diseases.; assay type: organism-based, Homo sapiens; conditions: Huh-7
# [8] = test system: Zika virus; experiment: as §1, with “cells.” for “cells (cotreated with P-gp inhibitor, CP100356).”; assay type: organism-based, Chlorocebus sabaeus, Vero C1008; conditions: Zika virus
smiles,measurement,setting,value
COc1cc(N[C@@H](C(=O)c2c[nH]c3ccc(OC(F)(F)F)cc23)c2ccc(Cl)cc2OC)cc(S(C)(=O)=O)c1,EC50,[1],726 nM
same,EC90,"[1]; Baseline response 0 %, Hill slope 17.55, Maximum measured 78.36 %, Maximum response 100 %, Minimum measured -4.751 %, P-gp concentration 500 nM, R squared 0.965, P-gp inhibitor CP100356",> 781 nM
same,EC90,"[2]; EC90 CI (lower) 0.002 uM, EC90 CI (upper) 0.172 uM, Hill slope -0.792, Maximum measured 161.955 %, Minimum measured 5.205 %, R squared 0.677",4830 nM
same,EC90,"[2]; EC90 CI (lower) 0.029 uM, EC90 CI (upper) 0.11 uM, Hill slope -0.824, Maximum measured 111.518 %, Minimum measured 7.6 %, R squared 0.806",> 10000 nM
same,EC90,"[2]; EC90 CI (lower) 0.389 uM, EC90 CI (upper) 1.092 uM, Hill slope -2.761, Maximum measured 123.481 %, Minimum measured 14.219 %, R squared 0.888",3200 nM
same,EC90,"[2]; Hill slope -12.116, Maximum measured 127.26 %, Minimum measured 45.283 %, R squared 0.53",> 3330 nM
same,EC90,"[2]; Hill slope -12.74, Maximum measured 124.12 %, Minimum measured 2.277 %, R squared 0.501",3790 nM
same,EC90,"[2]; Hill slope -15.757, Maximum measured 117.305 %, Minimum measured 4.138 %, R squared 0.906",1100 nM
same,EC90,"[2]; Hill slope -17.776, Maximum measured 116.903 %, Minimum measured 2.275 %, R squared 0.837",3170 nM
same,EC90,"[2]; Hill slope -18.67, Maximum measured 119.05 %, Minimum measured 1.241 %, R squared 0.846",3280 nM
same,EC50,[3],546 nM
same,EC90,[3],2790 nM
same,EC90,"[4]; Baseline response 0 %, Hill slope 0.131, Maximum measured 1.754 %, Maximum response 100 %, Minimum measured 0.009 %, R squared 0.032",< 391 nM
same,EC90,"[4]; Baseline response 0 %, Hill slope 0.182, Maximum measured 0.608 %, Maximum response 100 %, Minimum measured 0.03 %, R squared 0.035",< 391 nM
same,EC90,"[4]; Baseline response 0 %, Hill slope 0.299, Maximum measured 0.369 %, Maximum response 100 %, Minimum measured 0.02 %, R squared 0.601",< 391 nM
same,EC90,"[4]; Baseline response 0 %, Hill slope 0.306, Maximum measured 1.238 %, Maximum response 100 %, Minimum measured 0.01 %, R squared 0.111",< 391 nM
same,EC90,"[4]; Baseline response 0 %, Hill slope 1.135, Maximum measured 0.49 %, Maximum response 100 %, Minimum measured 0.132 %, R squared 0.538",< 391 nM
same,EC50,"[4]; Dengue virus, Vero C1008",< 391 nM
same,EC90,"[4]; Dengue virus, Vero C1008, Maximum measured 0.33 %, Minimum measured 0.072 %",< 391 nM
same,EC90,"[4]; Dengue virus, Vero C1008, Baseline response 0 %, Hill slope 0.447, Maximum measured 0.846 %, Maximum response 100 %, Minimum measured 0.033 %, R squared 0.302",< 391 nM
same,EC90,"[5]; Baseline response 0 %, EC90 CI (lower) 0.626 uM, EC90 CI (upper) 1511.53 uM, Hill slope 3.662, Maximum measured 12.805 %, Maximum response 100 %, Minimum measured 0.049 %, R squared 0.652",9.27 µM
same,EC90,"[5]; Baseline response 0 %, EC90 CI (lower) […] uM, EC90 CI (upper) […] uM, Hill slope -1.863, Maximum measured 115.571 %, Maximum response 100 %, Minimum measured 6.648 %, R squared 0.785",0.061 µM
same,EC90,"[5]; Baseline response 0 %, Hill slope 1.613, Maximum measured 7.031 %, Maximum response 100 %, Minimum measured 0.609 %, R squared 0.305",< 0.005 µM
same,EC90,"[5]; Baseline response 0 %, Hill slope 2.619, Maximum measured 1.603 %, Maximum response 100 %, Minimum measured 0.015 %, R squared 0.655",< 0.005 µM
same,EC90,"[5]; Baseline response 0 %, Hill slope 2.624, Maximum measured 9.128 %, Maximum response 100 %, Minimum measured 0.482 %, R squared 0.941",< 0.005 µM
same,EC90,"[5]; Baseline response 0 %, Hill slope -0.067, Maximum measured 1.374 %, Maximum response 100 %, Minimum measured 0.665 %, R squared 0.06",< 0.005 µM
same,EC90,"[5]; Baseline response 0 %, Hill slope -0.101, Maximum measured 7.568 %, Maximum response 100 %, Minimum measured 3.136 %, R squared 0.228",< 0.005 µM
same,EC90,"[5]; Dengue virus, VeroE6/TMPRSS2, Maximum measured 1.671 %, Minimum measured 0.643 %",< 0.005 µM
same,EC50,[5]; veroe6/tmprss2,< 5 nM and 19 nM
same,EC50,[6]; VeroE6/TMPRSS2,< 5 nM
same,EC90,"[6]; VeroE6/TMPRSS2, Baseline response 0 %, Hill slope -0.076, Maximum measured 4.343 %, Maximum response 100 %, Minimum measured 1.659 %, R squared 0.062",< 5 nM
same,EC50,[7],< 10 nM
same,EC90,"[8]; Vero C1008, Baseline response 0 %, Hill slope 9.978, Maximum measured 3.488 %, Maximum response 100 %, Minimum measured -3.611 %, R squared 0.038",> 50000 nM
same,EC90,"[8]; Vero C1008, Baseline response 0 %, Hill slope 52.791, Maximum measured 104.354 %, Maximum response 100 %, Minimum measured 0.394 %, R squared 0.996",452 nM
same,EC90,"[8]; Vero C1008, Baseline response 0 %, Hill slope -0.752, Maximum measured 14.519 %, Maximum response 100 %, Minimum measured -4.788 %, R squared 0.067",< 391 nM
same,EC90,"[8]; Vero C1008, Baseline response 0 %, Hill slope -0.757, Maximum measured 74.834 %, Maximum response 100 %, Minimum measured -5.889 %, R squared 0.129",< 391 nM
same,EC90,"[8]; Vero C1008, Baseline response 0 %, Hill slope -0.835, Maximum measured 99.922 %, Maximum response 100 %, Minimum measured -10.847 %, R squared 0.106",< 391 nM
same,EC90,"[8]; Vero C1008, Maximum measured 8.337 %, Minimum measured -6.427 %",> 50000 nM
same,EC90,"[8]; Vero C1008, Baseline response 0 %, EC90 CI (lower) 10.077 uM, EC90 CI (upper) 13.839 uM, Hill slope 6.588, Maximum measured 92.835 %, Maximum response 100 %, Minimum measured -3.07 %, R squared 0.987",11800 nM

# Reference: ChEMBL document CHEMBL5661943, “ASAP - In vitro antiviral effect” (2024)
